Results: PubChem BioAssay AID2202554 (NIEHS Division of Translational Toxicology (DTT))
Results filed as inconclusive are left out. Activity calls are given as the source filed them. How the calls were made is not given here.

System: S. typhimurium/E. coli reverse mutation, colony counts
Experiment: Bacterial reverse mutation test (aka Ames test) summary data
Outline: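 S. typhimurium his⁻ strains (TA97–TA1538) and E. coli WP2 uvrA pKM101 trp⁻, dosed over a range with or without rat, hamster or mouse liver S9. Preincubated 20 min at 37° C (or plate incorporation), plated in agar, incubated usually two days. Revertant colonies counted against negative controls.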

SMILES	outcome
CN(C)c1ccc2nc3ccc(=[N+](C)C)cc-3sc2c1	active; positive
c1ccc(C2CO2)cc1 (stereo unspecified)	active; positive
CC(C=O)=Cc1ccccc1	inactive; negative
O=CC=Cc1ccco1	inactive; negative
CCCCCC=CC=CC=O	inactive; negative
CN(C)CCC(c1ccccc1)c1ccccn1 (stereo unspecified)	inactive; negative
BrCCBr	active; positive
Cc1ccc([N+](=O)[O-])c(C)c1	active; positive
CCN(CC)CCNc1ccc(CO)c2sc3ccccc3c(=O)c12	active; positive
CC(C)CON=O	active; positive
Brc1ccc(Oc2ccc(Br)cc2Br)c(Br)c1	inactive; negative
COc1ccc(CN(CCN(C)C)c2ccccn2)cc1	inactive; negative
c1ccc(N=Nc2ccccc2)cc1	active; positive
COC(C)(C)C	inactive; negative
C=C(C)C	inactive; negative
Cc1cccnc1	inactive; negative
Cc1ccc(Nc2ccc(Nc3ccc(C)cc3S(=O)(=O)O)c3c2C(=O)c2ccccc2C3=O)c(S(=O)(=O)O)c1	active; weakly positive
COc1ccc(C(=O)c2ccccc2)c(O)c1	active; weakly positive
CCCCCCCCCCCCCCCCCCCC	inactive; negative
COCCO	inactive; negative
O=c1[nH]cc(F)c(=O)[nH]1	inactive; negative
Cc1c(C)c2c(c(C)c1OC(=O)CCC(=O)O)CC[C@@](C)(CCC[C@H](C)CCC[C@H](C)CCCC(C)C)O2	inactive; negative
N#CCc1ccccc1[N+](=O)[O-]	active; positive
CC1CCCO1 (stereo unspecified)	inactive; negative

SMILES	outcome
ClC(Cl)Cl	inactive; negative
CC(C)(C)OOC(C)(C)C	inactive; negative
CCCCCCOC(=O)c1ccccc1C(=O)OCCCCCC	inactive; negative
CC(=O)C=CC1=C(C)CCCC1(C)C	inactive; negative
CCc1ccccc1N	inactive; negative
Cc1cc(-c2ccc(N=Nc3cc(S(=O)(=O)O)c4ccccc4c3N)c(C)c2)ccc1N=Nc1cc(S(=O)(=O)O)c2ccccc2c1N	inactive; negative
C[CH2][Hg][S]c1ccccc1C(=O)O	inactive; negative
CCCCOB(OCCCC)OCCCC	inactive; negative
O=CC=O	active; positive
CCCCCCCCS(=O)C(C)Cc1ccc2c(c1)OCO2 (stereo unspecified)	inactive; negative
O=C1c2c(O)ccc(Nc3ccc(CCO)cc3)c2C(=O)c2c([N+](=O)[O-])ccc(O)c21	active; positive
COc1ccccc1C=CC=O	active; weakly positive
CCCCN(CC)CC	inactive; negative
Clc1c(Cl)c(Cl)c2c(c1Cl)Oc1c(Cl)c(Cl)c(Cl)c(Cl)c1O2	inactive; negative
CC(=O)OCCC(C)C	inactive; negative
NC(=O)c1ncn([C@@H]2O[C@H](CO)[C@@H](O)[C@H]2O)n1	inactive; negative
COP(=O)(OC)OC	active; positive
CN1CCCC1=O	inactive; negative
CCCCNC(=O)n1c(NC(=O)OC)nc2ccccc21	inactive; negative
O=c1c(-c2ccc(O)cc2)coc2cc(O)cc(O)c12	active; positive
Nc1n[nH]c(N)n1	inactive; negative
O=C(O)CNC(=O)c1ccc([N+](=O)[O-])cc1	active; positive
C=CCC	inactive; negative
CCCCC(CC)COC(=O)c1cccc(C(=O)OCC(CC)CCCC)c1 (stereo unspecified)	inactive; negative

SMILES	outcome
O=[N+]([O-])c1cc(Cl)c(Cl)cc1Cl	active; positive
Nc1ccc(Sc2ccc(N)cc2)cc1	active; positive
CCCCCCN	inactive; negative
CCOP(=S)(OCC)Oc1nc(Cl)c(Cl)cc1Cl	inactive; negative
Clc1ccc(C(c2ccc(Cl)cc2)C(Cl)(Cl)Cl)cc1	inactive; negative
OCCO	inactive; negative
CCC(=O)C=CC1C(C)=CCCC1(C)C (stereo unspecified)	inactive; negative
OCCC(F)(F)C(F)(F)C(F)(F)C(F)(F)C(F)(F)C(F)(F)C(F)(F)C(F)(F)F	inactive; negative
CCCCCCCC/C=C\CCCCCCCC(=O)N(CCO)CCO	inactive; negative
O=C1OC(=O)c2c(Br)c(Br)c(Br)c(Br)c21	inactive; negative
COc1cc(-c2ccc(N)c(OC)c2)ccc1N	active; positive
Nc1nc(N)c2nc(-c3ccccc3)c(N)nc2n1	inactive; negative
N#CCO	inactive; negative
OCCN1CN(CCO)CN(CCO)C1	active; positive
CSC(C)(C)C=NO	inactive; negative
c1ccc2[nH]c(-c3cscn3)nc2c1	active; positive
C1CC2OC2CC1C1CO1 (stereo unspecified)	active; positive
Cc1ccc(Cl)cc1	inactive; negative
ClC=CCl	inactive; negative
ClCC(Cl)CCl	active; positive
O=C1CSC(=S)N1	inactive; negative
CCc1cc(C(N)=S)ccn1	inactive; negative
C=CC(=O)OCCOCCOCCOCCOC(=O)C=C	inactive; negative
NCN	active; positive

SMILES	outcome
Cc1cccc(C)c1N	active; weakly positive
Cc1ccc2oc(=O)ccc2c1	inactive; negative
Nc1ccc(S(=O)(=O)c2ccc(N)cc2)cc1	inactive; negative
CNc1ccc(N(CCO)CCO)cc1[N+](=O)[O-]	active; positive
CCCCC(CC)COCC1CO1 (stereo unspecified)	active; positive
C[N+](C)(C)CCCl	inactive; negative
ClC(Cl)C(Cl)(Cl)Cl	inactive; negative
Nc1ccc([N+](=O)[O-])cc1O	active; positive
CN(C)c1ccc(N=Nc2ccccc2)cc1	active; positive
CC1OC(C)OC(C)O1 (stereo unspecified)	active; positive
Oc1ccc(Cl)cc1Cc1ccccc1	inactive; negative
O=S(=O)(O)c1ccc(N=Nc2c(O)ccc3cc(S(=O)(=O)O)ccc23)cc1	inactive; negative
O[C@@H]([C@H](O)[C@H](O)CBr)[C@H](O)CBr	active; positive
O=C([O-])c1ccccn1.O=C([O-])c1ccccn1.O=C([O-])c1ccccn1.[Cr+3]	inactive; negative
CCCCCCCCCCCC(=O)N(CCO)CCO	inactive; negative
CC(=O)c1ccc(S(=O)(=O)NC(=O)NC2CCCCC2)cc1	inactive; negative
O=Cc1ccc(Cl)cc1	inactive; negative
O=[N+]([O-])c1cc([As](=O)(O)O)ccc1O	inactive; negative
OCC(Br)CBr (stereo unspecified)	active; positive
CC(=O)CC(N)=O	active; positive
Clc1ccccc1	inactive; negative
ClC(Cl)c1ccccc1	active; positive
O=C(O)C(Cl)Br (stereo unspecified)	active; positive
O=C(O)c1cc(Cl)cc(Cl)c1	inactive; negative
